In US12290535B2, “Langerin+ cell targeting” (Max-Planck-Gesellschaft zur Förderung der Wissenschaften …, priority 2018, dated 2025):

Molecular target: T1, Langerin ECD (Homo sapiens, UniProt Q9UJ71, V278A)
T1 construct: residues 148 to 328; TEV site (C); StreptagII (C); made in house; host or cells: E. coli BL21* (DE3)
Experiment: 19F R2-filtered NMR reporter displacement assay (Ki determination)
Format: binding
Details: Langerin ECD 50 μM, pH 7.8, 25° C.
Description: Langerin extracellular domain. Expression and purification were conducted as previously published (Wamhoff, E. C. et al. (19)F Nmr-Guided Design of Glycomimetic Langerin Ligands. ACS Chem Biol, 11, 2407-13 (2016)). Briefly, the trimeric Langerin extracellular domain (ECD) was expressed insolubly in E. coli BL21* (DE3) (Invitrogen). Following enzymatic cell lysis, inclusion bodies were harvested and subsequently solubilized. The sample was centrifuged and the Langerin ECD was refolded overnight via rapid dilution. Next, the sample was dialyzed overnight, centrifuged and purified via mannan-agarose affinity chromatography (Sigma Aldrich). For ^19F R2-filtered NMR and lipid-enzyme-linked lectin assay (Lipid-ELLA) experiments, the buffer was exchanged to 25 mM Tris with 150 mM NaCl and 5 mM CaCl2 at pH 7.8 using 7 kDa size-exclusion desalting columns (Thermo Scientific). For STD NMR experiments, Langerin ECD samples were dialyzed five times for at least 8 h against H2O. Subsequently, the H2O was removed via lyophilization and the residue was stored at −80° C. Prior to STD NMR experiments, the Langerin ECD was dissolved in 25 mM Tris-d11 (Eurisotope) with 100% D2O, 150 mM NaCl and 5 mM CaCl2 at pH 7. The concentration of Langerin ECD was determined via UV spectroscopy (A280, 0.1%=2.45). Purity and monodispersity of Langerin ECD samples were analyzed via SDS PAGE and DLS.
General remarks. ^19F R2-filtered NMR experiments were conducted on a PremiumCompact 600 MHz spectrometer (Agilent). Spectra were processed in MestReNova and data analysis was performed with OriginPro (Mestrelab Research. Mestrenova. 11.0.2. (2016); OriginLab. Originpro. 9.1. (2015)). Experiments with the Langerin ECD were performed at a receptor concentration of 50 μM in 25 mM Tris with 10% D2O, 150 mM NaCl and 5 mM CaCl2 at pH 7.8 and 25° C. Experiments with the DC-SIGN CRD were performed at a receptor concentration of 50 μM in 25 mM HEPES with 10% D2O, 150 mM NaCl and 5 mM CaCl2 at pH 7.0 and 25° C. TFA served as an internal reference at a concentration of 50 μM. Apparent relaxation rates R2,obs for the reporter ligand were determined using the CPMG pulse sequence as previously published (Wamhoff, E. C. et al. (19)F Nmr-Guided Design of Glycomimetic Langerin Ligands. ACS Chem Biol, 11, 2407-13 (2016): Carr, H. Y. & Purcell, E. M. Effects of Diffusion on Free Precession in Nuclear Magnetic Resonance Experiments. Phys Rev, 94, 630-638 (1954); Meiboom, S. & Gill, D. Modified Spin-Echo Method for Measuring Nuclear Relaxation Times. Rev Sci Instrum 29, 688-691 (1958)).
Ki determination. Ki values were determined as previously published for Langerin (Wamhoff, E. C. et al. (19)F NMR-Guided Design of Glycomimetic Langerin Ligands. ACS Chem Biol 11, 2407-13 (2016)). Briefly, titration experiments were conducted at a concentration of 0.1 mM of reporter ligand 24 at five competitor concentrations [I]T. Samples were prepared via serial dilution. For the acids GlcNS, GlcNAc-6-OS and GlcNS-6-OS the pH values were monitored and adjusted to 7.8 if necessary.

T1 sequence (Q9UJ71 148-328 V278A): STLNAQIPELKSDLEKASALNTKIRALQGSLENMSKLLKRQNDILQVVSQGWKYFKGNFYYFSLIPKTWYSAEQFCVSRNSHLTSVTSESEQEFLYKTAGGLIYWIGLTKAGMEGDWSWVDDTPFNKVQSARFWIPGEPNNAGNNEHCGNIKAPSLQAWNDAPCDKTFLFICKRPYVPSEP

Ki: 10 ± 1 mM
SMILES: CC(=O)NCCO[C@H]1O[C@H](CO)[C@@H](O)[C@H](O)[C@@H]1O [Man analog 21]
